Measurements from patent US7875647B2, “Heteroaryl-pyrazole derivatives as cannabinoid CB1 receptor antagonists” (Green Cross Corporation, priority 2006, dated 2011).

The compounds below were run against T1, Cannabinoid-1 receptor (CB1R) (Rattus norvegicus, UniProt P20272) (assay: Cannabinoid-1 receptor (CB1R) binding affinity assay ([3H]CP-55940, rat CB-1 receptor binding protocol)). Details: IC50(nM), brain tissue of SD rats, [3H]CP-55940, 30° C. 60 min.
T1 construct: The tissue obtained from the brain of SD rats was homogenized; from tissue; host or cells: brain of SD rats (membrane pellet of the homogenate)
T1 sequence (P20272 whole entry): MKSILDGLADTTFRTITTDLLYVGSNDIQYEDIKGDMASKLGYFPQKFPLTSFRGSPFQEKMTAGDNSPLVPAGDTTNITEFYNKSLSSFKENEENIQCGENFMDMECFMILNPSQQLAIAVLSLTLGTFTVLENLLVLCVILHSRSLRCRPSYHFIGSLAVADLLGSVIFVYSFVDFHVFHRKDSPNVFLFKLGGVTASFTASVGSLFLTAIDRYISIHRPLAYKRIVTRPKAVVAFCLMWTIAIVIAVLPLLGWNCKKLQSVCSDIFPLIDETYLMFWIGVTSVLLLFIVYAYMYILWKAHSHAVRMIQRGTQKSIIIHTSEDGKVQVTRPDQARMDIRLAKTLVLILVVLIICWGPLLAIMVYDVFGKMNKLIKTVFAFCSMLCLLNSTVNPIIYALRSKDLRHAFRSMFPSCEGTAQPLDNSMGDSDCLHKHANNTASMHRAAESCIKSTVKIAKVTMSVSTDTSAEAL
Work on `C=CCC1(c2nnc(-c3nn(-c4ccc(Cl)cc4Cl)c(-c4ccc(Br)cc4)c3CC)o2)CC1` [Example 259, 2-(1-allylcyclopropyl)-5-(5-(4-bromophenyl)-1-(2,4-dichlorophenyl)-4-ethyl-1H-pyrazol-3-yl)-1,3,4-oxadiazole] yielded an IC50 of 9.57 nM.
`CCc1c(-c2nnc(C3(c4cccc(Cl)c4)CC3)o2)nn(-c2ccc(Cl)cc2Cl)c1-c1ccc(Br)cc1` [Example 273, 2-(5-(4-bromophenyl)-1-(2,4-dichlorophenyl)-4-ethyl-1H-pyrazol-3-yl)-5-(1-(3-chlorophenyl)cyclopropyl)-1,3,4-oxadiazole] showed an IC50 of 2.32 nM.
Compound `CCc1c(-c2nnc(C3(CC)CC3)o2)nn(-c2ccc(Cl)cc2Cl)c1-c1ccc(Br)cc1` [Example 279, 2-(5-(4-bromophenyl)-1-(2,4-dichlorophenyl)-4-ethyl-1H-pyrazol-3-yl)-5-(1-ethylcyclopropyl)-1,3,4-oxadiazole] has an IC50 of 12.8 nM.

Same assay, conditions: brain tissue of SD rats, [3H]CP-55940, 30° C. 60 min; read-out: IC50
`C#Cc1c(-c2nnc(C(C)(C)C)o2)nn(-c2ccc(Cl)cc2Cl)c1-c1ccc(Cl)cc1` [Example 260, 2-tert-butyl-5-(5-(4-chlorophenyl)-1-(2,4-dichlorophenyl)-4-ethynyl-1H-pyrazol-3-yl)-1,3,4-oxadiazole] showed an IC50 of 10.6 nM.
`CC#Cc1c(-c2nnc(C(C)(C)C)o2)nn(-c2ccc(Cl)cc2Cl)c1-c1ccc(Cl)cc1` [Example 261, 2-tert-butyl-5-(5-(4-chlorophenyl)-1-(2,4-dichlorophenyl)-4-(prop-1-ynyl)-1H-pyrazol-3-yl)-1,3,4-oxadiazole] gave an IC50 of 15.4 nM.
For `CCc1c(-c2nnc(C3(C#N)CC3)o2)nn(-c2ccc(Cl)cc2Cl)c1-c1ccc(Br)cc1` [Example 266, 1-(5-(5-(4-bromophenyl)-1-(2,4-dichlorophenyl)-4-ethyl-1H-pyrazol-3-yl)-1,3,4-oxadiazol-2-yl)cyclopropanecarbonitrile], the IC50 was 15.5 nM.
Compound `Cc1c(-c2nnc(C3(C#N)CC3)o2)nn(-c2ccc(Cl)cc2Cl)c1-c1ccc(Cl)cc1` [Example 267, 1-(5-(5-(4-chlorophenyl)-1-(2,4-dichlorophenyl)-4-methyl-1H-pyrazol-3-yl)-1,3,4-oxadiazol-2-yl)cyclopropanecarbonitrile] has an IC50 of 95.3 nM.
`CCc1c(-c2nnc(C3(C#N)CC3)o2)nn(-c2ccc(Cl)cc2Cl)c1-c1ccc(Cl)cc1` [Example 268, 1-(5-(5-(4-chlorophenyl)-1-(2,4-dichlorophenyl)-4-ethyl-1H-pyrazol-3-yl)-1,3,4-oxadiazol-2-yl)cyclopropanecarbonitrile] was tested, and the IC50 was 83.8 nM.
With `Cc1c(-c2nnc(C3(c4ccccn4)CC3)o2)nn(-c2ccc(Cl)cc2Cl)c1-c1ccc(Cl)cc1` [Example 269, 2-(5-(4-chlorophenyl)-1-(2,4-dichlorophenyl)-4-methyl-1H-pyrazol-3-yl)-5-(1-(pyridin-2-yl)cyclopropyl)-1,3,4-oxadiazole] the IC50 was 19.9 nM.
In the case of `Cc1c(-c2nnc(C3(Cc4ccccc4)CC3)o2)nn(-c2ccc(Cl)cc2Cl)c1-c1ccc(Cl)cc1` [Example 270, 2-(1-benzylcyclopropyl)-5-(5-(4-chlorophenyl)-1-(2,4-dichlorophenyl)-4-methyl-1H-pyrazol-3-yl)-1,3,4-oxadiazole], the IC50 is reported as 15 nM.
`CCc1c(-c2nnc(C3(c4ccc(F)cc4)CC3)o2)nn(-c2ccc(Cl)cc2Cl)c1-c1ccc(Br)cc1` [Example 272, 2-(5-(4-bromophenyl)-1-(2,4-dichlorophenyl)-4-ethyl-1H-pyrazol-3-yl)-5-(1-(4-fluorophenyl)cyclopropyl)-1,3,4-oxadiazole] was tested, and the IC50 was 5.8 nM.
`Cc1c(-c2nnc(C3(c4ccc(F)cc4)CC3)o2)nn(-c2ccc(Cl)cc2Cl)c1-c1ccc(Cl)cc1` [Example 274, 2-(5-(4-chlorophenyl)-1-(2,4-dichlorophenyl)-4-methyl-1H-pyrazol-3-yl)-5-(1-(4-fluorophenyl)cyclopropyl)-1,3,4-oxadiazole] was tested, and the IC50 was 12.3 nM.
In the case of `Cc1c(-c2nnc(C3(C)CC3)o2)nn(-c2ccc(Cl)cc2Cl)c1-c1ccc(Cl)cc1` [Example 275, 2-(5-(4-chlorophenyl)-1-(2,4-dichlorophenyl)-4-methyl-1H-pyrazol-3-yl)-5-(1-methylcyclopropyl)-1,3,4-oxadiazole], the IC50 is reported as 14.7 nM.
`CCc1c(-c2nnc(C3(C)CC3)o2)nn(-c2ccc(Cl)cc2Cl)c1-c1ccc(Br)cc1` [Example 276, 2-(5-(4-bromophenyl)-1-(2,4-dichlorophenyl)-4-ethyl-1H-pyrazol-3-yl)-5-(1-methylcyclopropyl)-1,3,4-oxadiazole] gave an IC50 of 13 nM.
Compound `CCC1(c2nnc(-c3nn(-c4ccc(Cl)cc4Cl)c(-c4ccc(Cl)cc4)c3C)o2)CC1` [Example 277, 2-(5-(4-chlorophenyl)-1-(2,4-dichlorophenyl)-4-methyl-1H-pyrazol-3-yl)-5-(1-ethylcyclopropyl)-1,3,4-oxadiazole] has an IC50 of 12.6 nM.
With `CCc1c(-c2nnc(C3(CC)CC3)o2)nn(-c2ccc(Cl)cc2Cl)c1-c1ccc(Cl)cc1` [Example 278, 2-(5-(4-chlorophenyl)-1-(2,4-dichlorophenyl)-4-ethyl-1H-pyrazol-3-yl)-5-(1-ethylcyclopropyl)-1,3,4-oxadiazole] the IC50 was 17.1 nM.
With `Cc1c(-c2nnc(C3(Cc4ccc(Cl)cc4)CC3)o2)nn(-c2ccc(Cl)cc2Cl)c1-c1ccc(Cl)cc1` [Example 280, 2-(1-(4-chlorobenzyl)cyclopropyl)-5-(5-(4-chlorophenyl)-1-(2,4-dichlorophenyl)-4-methyl-1H-pyrazol-3-yl)-1,3,4-oxadiazole] the IC50 was 11.7 nM.
`CCc1c(-c2nnc(C3(Cc4ccc(Cl)cc4)CC3)o2)nn(-c2ccc(Cl)cc2Cl)c1-c1ccc(Br)cc1` [Example 281, 2-(1-(4-chlorobenzyl)cyclopropyl)-5-(5-(4-bromophenyl)-1-(2,4-dichlorophenyl)-4-ethyl-1H-pyrazol-3-yl)-1,3,4-oxadiazole] showed an IC50 of 6.21 nM.
Compound `CCc1c(-c2nnc(C3(c4ccccc4F)CC3)o2)nn(-c2ccc(Cl)cc2Cl)c1-c1ccc(Cl)cc1` [Example 282, 2-(5-(4-chlorophenyl)-1-(2,4-dichlorophenyl)-4-ethyl-1H-pyrazol-3-yl)-5-(1-(2-fluorophenyl)cyclopropyl)-1,3,4-oxadiazole] has an IC50 of 4.08 nM.
In the case of `CCc1c(-c2nnc(C3(C)CC3)o2)nn(-c2ccc(Cl)cc2Cl)c1-c1ccc(Cl)cc1` [Example 283, 2-(5-(4-chlorophenyl)-1-(2,4-dichlorophenyl)-4-ethyl-1H-pyrazol-3-yl)-5-(1-methylcyclopropyl)-1,3,4-oxadiazole], the IC50 is reported as 11 nM.
In the case of `CC(=O)C1(c2nnc(-c3nn(-c4ccc(Cl)cc4Cl)c(-c4ccc(Cl)cc4)c3C)o2)CC1` [Example 286, 1-(1-(5-(5-(4-chlorophenyl)-1-(2,4-dichlorophenyl)-4-methyl-1H-pyrazol-3-yl)-1,3,4-oxadiazol-2-yl)cyclopropyl)ethanone], the IC50 is reported as 9.36 nM.
For `Cc1c(-c2nnc(C3(C(C)(C)O)CC3)o2)nn(-c2ccc(Cl)cc2Cl)c1-c1ccc(Cl)cc1` [Example 287, 2-(1-(5-(5-(4-chlorophenyl)-1-(2,4-dichlorophenyl)-4-methyl-1H-pyrazol-3-yl)-1,3,4-oxadiazol-2-yl)cyclopropyl)propan-2-ol], the IC50 was 34.9 nM.
With `Cc1c(-c2nnc(C3(C(C)O)CC3)o2)nn(-c2ccc(Cl)cc2Cl)c1-c1ccc(Cl)cc1` (stereo not shown) [Example 288, 1-(1-(5-(5-(4-chlorophenyl)-1-(2,4-dichlorophenyl)-4-methyl-1H-pyrazol-3-yl)-1,3,4-oxadiazol-2-yl)cyclopropyl)ethanol] the IC50 was 60.2 nM.
`CCN(C)Cc1c(-c2nnc(C(C)(C)C)o2)nn(-c2ccc(Cl)cc2Cl)c1-c1ccc(Cl)cc1` [Example 290, N-((3-(5-tert-butyl-1,3,4-oxadiazol-2-yl)-5-(4-chlorophenyl)-1-(2,4-dichlorophenyl)-1H-pyrazol-4-yl)methyl)-N-methylethanamine] was tested, and the IC50 was 227 nM.
For `CC(C)(C)c1nnc(-c2nn(-c3ccc(Cl)cc3Cl)c(-c3ccc(Cl)cc3)c2CN2CCCCC2)o1` [Example 291, 2-tert-butyl-5-(5-(4-chlorophenyl)-1-(2,4-dichlorophenyl)-4-(piperidin-1-ylmethyl)-1H-pyrazol-3-yl)-1,3,4-oxadiazole], the IC50 was 45.7 nM.
`CC(C)(C)c1nnc(-c2nn(-c3ccc(Cl)cc3Cl)c(-c3ccc(Cl)cc3)c2CN2CCOCC2)o1` [Example 293, 4-((3-(5-tert-butyl-1,3,4-oxadiazol-2-yl)-5-(4-chlorophenyl)-1-(2,4-dichlorophenyl)-1H-pyrazol-4-yl)methyl)morpholine] was tested, and the IC50 was 135 nM.
`CC(C)NCc1c(-c2nnc(C(C)(C)C)o2)nn(-c2ccc(Cl)cc2Cl)c1-c1ccc(Cl)cc1` [Example 295, N-((3-(5-tert-butyl-1,3,4-oxadiazol-2-yl)-5-(4-chlorophenyl)-1-(2,4-dichlorophenyl)-1H-pyrazol-4-yl)methyl)propan-2-amine] showed an IC50 of 41.5 nM.
`CC(C)(C)c1nnc(-c2nn(-c3ccc(Cl)cc3Cl)c(-c3ccc(Cl)cc3)c2Cn2cncn2)o1` [Example 296, 2-(4-((1H-1,2,4-triazol-1-yl)methyl)-5-(4-chlorophenyl)-1-(2,4-dichlorophenyl)-1H-pyrazol-3-yl)-5-tert-butyl-1,3,4-oxadiazole] was tested, and the IC50 was 2.36 nM.
Compound `CC(C)(C)c1nnc(-c2nn(-c3ccc(Cl)cc3Cl)c(-c3ccc(Cl)cc3)c2Cn2ccnc2)o1` [Example 297, 2-(4-((1H-imidazol-1-yl)methyl)-5-(4-chlorophenyl)-1-(2,4-dichlorophenyl)-1H-pyrazol-3-yl)-5-tert-butyl-1,3,4-oxadiazole] has an IC50 of 18.7 nM.
`CC(C)(C)c1nnc(-c2nn(-c3ccc(Cl)cc3Cl)c(-c3ccc(Cl)cc3)c2Cn2cccn2)o1` [Example 298, 2-(4-((1H-pyrazol-1-yl)methyl)-5-(4-chlorophenyl)-1-(2,4-dichlorophenyl)-1H-pyrazol-3-yl)-5-tert-butyl-1,3,4-oxadiazole] was tested, and the IC50 was 20.5 nM.
`CC(C)(C)c1nnc(-c2nn(-c3ccc(Cl)cc3Cl)c(-c3ccc(Cl)cc3)c2Cn2cccc2)o1` [Example 299, 2-(4-((1H-pyrrol-1-yl)methyl)-5-(4-chlorophenyl)-1-(2,4-dichlorophenyl)-1H-pyrazol-3-yl)-5-tert-butyl-1,3,4-oxadiazole] gave an IC50 of 38.4 nM.
